# Experimental data: EP1137645B1, “ALPHA-METHYLBENZYL-CONTAINING THIOUREA INHIBITORS OF HERPES VIRUSES CONTAINING A […] GROUP” (Wyeth, priority 1998, dated 2000)
# Read-outs that look alike come from different tables or passages of the source.
# Legend:
# [1] = system: HCMV recombinant mutant virus whose genome contains the prokaryotic beta-glucuronidase gene; experiment: microbe, parasite or virus in culture; format: cell-based, human cytomegalovirus; settings: Human betaherpesvirus 5, Fibroblast
# How it was run: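 Antiviral IC50 estimated from reduced reporter activity across compound amounts: lysates prepared 96 h after infection were tested with p-nitrophenyl- or methylumbelliferyl-glucuronide. Cells were human foreskin fibroblasts, infected alongside inhibitor with HCMV (e.g. RV145) expressing viral promoter-driven beta-glucuronidase.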
# HSV- I = experiment: HSV antiviral (ELISA) assay; format: cell-based; settings: read-out: IC50 (ug/ml) HSV
# How it was run: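 IC50 from fluorescence versus untreated control in a cell ELISA: anti-glycoprotein D antibody, β-galactosidase-conjugated secondary, 4-methyl umbelliferone read at 365/450 nm. Vero cells (2% FBS DMEM) received compound 30 min pre-infection with HSV-1 at MOI 0.006, fixed ~24 h post-infection.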
# VZV strain Ellen = experiment: VZV antiviral (ELISA) assay; format: cell-based
# How it was run: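 HFF cells infected with VZV Ellen at multiplicity below 0.1 overnight, then mixed infected/uninfected cells seeded with compound in DMEM/2% FBS and incubated three days at 37°C, 5% CO2.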
# [2] = read-out: IC50 ug/ml HCMV, HCMV, human foreskin fibroblasts
# [3] = Human alphaherpesvirus 3, HFF, read-out: % inhibition 10 ug/ml VZV
# [4] = Human alphaherpesvirus 3, HFF, read-out: IC50 (ug/ml) VZV
# [5] = Human alphaherpesvirus 3, read-out: % inhibition 10 ug/ml VZV, 10 ug/ml, VZV strain Ellen, HFF cells, ELISA
# [6] = Human alphaherpesvirus 3, VZV strain Ellen, HFF cells, ELISA, read-out: IC50 (ug/ml) VZV
# [7] = Human alphaherpesvirus 3, HFF, read-out: IC50 (ug/ml) VZV, VZV strain Ellen, HFF cells, ELISA
SMILES,"IC50 [1, 2]","IC50 (HSV- I; HSV- I, Vero cells, ELISA)",inhibition at 10 µg/mL (VZV strain Ellen; [3]),IC50 (VZV strain Ellen; [4]),IC50 ([1]; read-out: IC50 ug/ml HCMV),inhibition at 10 µg/mL (VZV strain Ellen; [5]),IC50 (VZV strain Ellen; [6]),IC50 (HSV- I; Vero),IC50 (VZV strain Ellen; [7])
"COc1cc(OC)c(NC(=S)Nc2ccc(NC(=O)c3cccc(OCCN(C)C)c3)cc2)cc1Cl [Example 257, N-{4-[3-(5-Chloro-2,4-dimethoxy-phenyl)-thioureido]-phenyl}-3-(2-dimethylamino-ethoxy)-benzamide]",7 µg/mL,2.5 µg/mL,105%,2.5 µg/mL,,,,,
"COc1cc(OC)c(NC(=S)Nc2ccc(NC(=O)c3cccc4c3OCO4)cc2)cc1Cl [Example 255, Benzo[1,3]dioxole-4-carboxylic acid {4-[3-(5-chloro-2,4-dimethoxy-phenyl)-thioureido]-phenyl}-amide]",> 10 µg/mL,1.2 µg/mL,0%,> 10 µg/mL,,,,,
"COc1cccc(C(=O)Nc2ccc(NC(=S)Nc3ccc(OC)c(Cl)c3)cc2)c1 [Example 819, N-{4-[3-(3-Chloro-4-methoxy-phenyl)-thioureido]-phenyl}-3-methoxy-benzamide]",4 µg/mL,6 µg/mL,93%,2.5 µg/mL,,,,,
"O=C(Nc1ccc(NC(=S)Nc2cccc(OC(F)(F)F)c2)cc1)c1ccccc1F [Example 961, 2-Fluoro-N-{4-[3-(3-trifluoromethoxy-phenyl)-thioureido]-phenyl}-benzamide]",,> 10 µg/mL,,,> 10 µg/mL,53%,> 10 µg/mL,,
"O=C(Nc1ccc(NC(=S)NCc2ccccc2)cc1)c1ccccc1F [Example 536, N-[4-(3-Benzyl-thioureido)-phenyl]-2-fluoro-benzamide]",,> 10 µg/mL,,,> 10 µg/mL,,> 10 µg/mL,,
"O=C(Nc1ccc(NC(=S)Nc2cc(Br)cc(C(F)(F)F)c2)cc1)c1ccccc1F [Example 531, N-{4-[3-(3-Bromo-5-trifluoromethyl-phenyl)-thioureido]-phenyl}-2-fluoro-benzamide]",5 µg/mL,,,,,,,> 10 µg/mL,6 µg/mL
"N#Cc1cccc(NC(=S)Nc2ccc(NC(=O)c3ccccc3F)cc2)c1 [Example 461, N-{4-[3-(3-Cyano-phenyl)-thioureido]-phenyl}-2-fluoro-benzamide]",,> 10 µg/mL,,,> 10 µg/mL,33%,> 10 µg/mL,,
"CC(O)c1ccc(NC(=S)Nc2ccc(NC(=O)c3ccccc3F)cc2)cc1Cl (stereo not drawn) [Example 865, N-(4-{3-[3-Chloro-4-(1-hydroxy-ethyl)-phenyl]-thioureido}-phenyl)-2-fluoro-benzamide]",0.3 µg/mL,4 µg/mL,52%,> 10 µg/mL,,,,,
"O=C(Nc1ccc(NC(=S)Nc2cccc(C(F)(F)F)c2)cc1)c1ccccc1F [Example 433, 2-Fluoro-N-{4-[3-(3-trifluoromethyl-phenyl)-thioureido]-phenyl}-benzamide]",,> 10 µg/mL,,,> 10 µg/mL,0%,> 10 µg/mL,,
"CC(NC(=S)Nc1ccc(C(=O)Nc2ccc(F)cc2)cc1)c1ccc(F)cc1 (stereo not drawn) [Example 975, N-(4-Fluoro-phenyl)-4-{3-[1-(4-fluoro-phenyl)-ethyl]-thioureido}-benzamide]",,> 10 µg/mL,,,> 10 µg/mL,,0.87 µg/mL,,
"COc1cc(OC)c(NC(=S)Nc2ccc(NC(=O)c3cccc(N(C)C)c3)cc2)cc1Cl [Example 136, N-{4-[3-(5-Chloro-2,4-dimethoxy-phenyl)-thioureido]-phenyl}-3-dimethylamino-benzamide]",10 µg/mL,1 µg/mL,40%,> 10 µg/mL,,,,,
"O=C(Nc1ccc(NC(=S)NCCc2cccc(F)c2)cc1)c1ccccc1F [Example 552, 2-Fluoro-N-(4-{3-[2-(3-fluoro-phenyl)-ethyl]-thioureido}-phenyl)-benzamide]",,> 10 µg/mL,,,> 0.5 µg/mL,,> 10 µg/mL,,
"COc1cc(C)c(Cl)cc1NC(=S)Nc1ccc(NC(=O)c2ccccc2F)cc1 [Example 849, N-{4-[3-(5-Chloro-2-methoxy-4-methyl-phenyl)-thioureido]-phenyl}-2-fluoro-benzamide]",> 10 µg/mL,> 10 µg/mL,38%,> 10 µg/mL,,,,,
"COc1cc(OC)c(NC(=S)Nc2ccc(NC(=O)c3cccc(NC(C)=O)c3)cc2)cc1Cl [Example 134, 3-Acetylamino-N-{4-[3-(5-chloro-2,4-dimethoxy-phenyl)-thioureido]-phenyl}-benzamide]",4 µg/mL,> 10 µg/mL,50%,> 10 µg/mL,,,,,
"Cc1ccc(NC(=S)Nc2ccc(NC(=O)c3ccccc3F)cc2)cc1C(F)(F)F [Example 1003, 2-Fluoro-N-{4-[3-(4-methyl-3-trifluoromethyl-phenyl)-thioureido]-phenyl}-benzamide]",,> 10 µg/mL,,,> 10 µg/mL,,> 10 µg/mL,,
"COc1ccc(NC(=S)Nc2ccc(NC(=O)c3ccccc3)cc2)cc1Cl [Example 817, N-{4-[3-(3-Chloro-4-methoxy-phenyl)-thioureido]-phenyl}-benzamide]",2 µg/mL,1 µg/mL,66%,12 µg/mL,,,,,
"Nc1c(Br)cc(NC(=S)Nc2ccc(NC(=O)c3ccccc3F)cc2)cc1Br [Example 519, N-{4-[3-(4-Amino-3,5-dibromo-phenyl)-thioureido]-phenyl}-2-fluoro-benzamide]",,0.4 µg/mL,,,1.7 µg/mL,18%,> 10 µg/mL,,
"CN(C)c1cc(CNC(=S)Nc2ccc(NC(=O)c3ccccc3F)cc2)cc(C(F)(F)F)c1 [Example 636, N-{4-[3-(3-Dimethylamino-5-trifluoromethyl-benzyl)-thioureido]-phenyl}-2-fluoro-benzamide]",> 10 µg/mL,,,,,,,> 10 µg/mL,5 µg/mL
"CN(C)c1c(Cl)cccc1NC(=S)Nc1ccc(NC(=O)c2c(F)cccc2F)cc1 [Example 504, N-{4-[3-(3-Chloro-2-dimethylamino-phenyl)-thioureido]-phenyl}-2,6-difluoro-benzamide]",2 µg/mL,6 µg/mL,99%,4.5 µg/mL,,,,,
"COc1cc(OC)c(NC(=S)Nc2ccc(NC(=O)c3cccc(C(=O)O)c3)cc2)cc1Cl [Example 209, N-{4-[3-(5-Chloro-2,4-dimethoxy-phenyl)-thioureido]-phenyl}-isophthalamic acid]",> 50 µg/mL,> 50 µg/mL,22%,> 10 µg/mL,,,,,
"Nc1cc(Cl)cc(NC(=S)Nc2ccc(NC(=O)c3ccccc3F)cc2)c1 [Example 442, N-{4-[3-(3-Amino-5-chloro-phenyl)-thioureido]-phenyl}-2-fluoro-benzamide]",2 µg/mL,1 µg/mL,81%,8 µg/mL,,,,,
"COc1cc(OC)c(NC(=S)Nc2ccc(NC(=O)c3ccccc3OC)cc2)cc1Cl [Example 119, N-{4-[3-(5-Chloro-2,4-dimethoxy-phenyl)-thioureido]-phenyl}-2-methoxy-benzamide]",> 10 µg/mL,0.5 µg/mL,1%,> 10 µg/mL,,,,,
"COC(=O)c1cccc(NC(=S)Nc2ccc(NC(=O)c3ccccc3F)cc2)c1 [Example 950, 3-{3-[4-(2-Fluoro-benzoylamino)-phenyl]-thioureido}-benzoic acid methyl ester]",,8 µg/mL,,,> 10 µg/mL,,> 10 µg/mL,,
"Cc1ccc(NC(=S)Nc2ccc(NC(=O)c3c(F)cccc3F)cc2)cc1Cl [Example 235, N-{4-[3-(3-Chloro-4-methyl-phenyl)-thioureido]-phenyl}-2,6-difluoro-benzamide]",> 10 µg/mL,0.2 µg/mL,50%,> 10 µg/mL,,,,,
"O=C(CN1CCSCC1)Nc1ccc(NC(=S)Nc2ccc(NC(=O)c3ccccc3F)cc2)cc1Cl [Example 407, N-(4-{3-[3-Chloro-4-(2-thiomorpholin-4-yl-acetylamino)-phenyl]-thioureido}-phenyl)-2-fluoro-benzamide]",> 10 µg/mL,4 µg/mL,87%,0.7 µg/mL,,,,,
"COc1cc(OC)c(NC(=S)Nc2ccc(NC(=O)c3cccc(OC(F)(F)F)c3)cc2)cc1Cl [Example 256, N-{4-[3-(5-Chloro-2,4-dimethoxy-phenyl)-thioureido]-phenyl}-3-trifluoro-methoxy-benzamide]",9 µg/mL,2 µg/mL,15%,> 10 µg/mL,,,,,
"CSc1ccc(NC(=S)Nc2ccc(NC(=O)c3ccccc3F)cc2Cl)cc1Cl [Example 460, N-{3-Chloro-4-[3-(3-chloro-4-methylsulfanyl-phenyl)-thioureido]-phenyl}-2-fluoro-benzamide]",2 µg/mL,0.09 µg/mL,50%,> 10 µg/mL,,,,,
"Nc1nccc(-c2ccc(NC(=S)Nc3ccc(NC(=O)c4ccccc4F)cc3)cc2Cl)n1 [Example 502, N-(4-{3-[4-(2-Amino-pyrimidin-4-yl)-3-chloro-phenyl]-thioureido}-phenyl)-2-fluoro-benzamide]",1.8 µg/mL,> 10 µg/mL,13%,> 10 µg/mL,,,,,
